Experimental data: patent publication US6426369B1, “Oxethazaine as antimicrobial agent” (Eisai Co., Ltd., priority 1997, dated 2002)

Tested on: H. pylori
Assay: Antimicrobial activity test 6: oxethazaine in combination with an antibiotic (AMPC, CAM, RXM), checker board method
Format: cell-based, Helicobacter pylori
Parameters: key to growth of H. pylori: “−” indicates the inhibited growth of H. pylori (presence of antimicrobial activity); “+” indicates the growth of H. pylori (absence of antimicrobial activity)
Conditions: for growth of H. pylori: oxethazaine μg/ml: 100, 50, 25, 12.5, 6.25, 3.13, 0
Text: The effect of combined use with amoxicillin (AMPC), clarithromycin (CAM) or roxithromycin (RXM) was examined in the same manner as in antimicrobial activity test 1, using the checker board method.

[1] = combined use with oxethazaine, out of 15 strains (AMPC), 21 strains (CAM), 22 strains (RXM)

`CC[C@H]1OC(=O)[C@H](C)[C@@H](O[C@H]2C[C@@](C)(OC)[C@@H](O)[C@H](C)O2)[C@H](C)[C@@H](O[C@@H]2O[C@H](C)C[C@H](N(C)C)[C@H]2O)[C@](C)(O)C[C@@H](C)/C(=N\OCOCCOC)[C@H](C)[C@@H](O)[C@]1(C)O` [roxithromycin] was tested, and the “additive effect, number of strains” value [1] was 19 strains/, the “synergism, number of strains” value [1] was 4 strains/ and the “growth of H. pylori” value (strain EH 12, RXM 0.05 μg/ml) was “+”. The “growth of H. pylori” value (strain EH 12, RXM 0.1 μg/ml) was “+”, the “growth of H. pylori” value (strain EH 12, RXM 0.2 μg/ml) was “−” and the “growth of H. pylori” value (strain EH 12, RXM 0.4 μg/ml) was “−”. The “growth of H. pylori” value (strain EH 12, RXM 0.8 μg/ml) was “−”, the “growth of H. pylori” value (strain EH 12, RXM 1.56 μg/ml) was “−” and the “growth of H. pylori” value (strain EH 12, RXM 3.13 μg/ml) was “−”. The “growth of H. pylori” value (strain EH 12, RXM 6.25 μg/ml) was “−”, the “growth of H. pylori” value (strain EH 12, RXM 12.5 μg/ml) was “−” and the “growth of H. pylori” value (strain EH 12, RXM 25 μg/ml) was “−”. For the same compound, the “growth of H. pylori” value (strain EH 12, RXM 50 μg/ml) was “−”, the “growth of H. pylori” value (strain EH 12, RXM 100 μg/ml) was “−” and the “growth of H. pylori” value (strain EH 13, RXM 0.05 μg/ml) was “+”. For the same compound, the “growth of H. pylori” value (strain EH 13, RXM 0.1 μg/ml) was “+”, the “growth of H. pylori” value (strain EH 13, RXM 0.2 μg/ml) was “−” and the “growth of H. pylori” value (strain EH 13, RXM 0.4 μg/ml) was “−”. For the same compound, the “growth of H. pylori” value (strain EH 13, RXM 0.8 μg/ml) was “−”, the “growth of H. pylori” value (strain EH 13, RXM 1.56 μg/ml) was “−” and the “growth of H. pylori” value (strain EH 13, RXM 3.13 μg/ml) was “−”. For the same compound, the “growth of H. pylori” value (strain EH 13, RXM 6.25 μg/ml) was “−”, the “growth of H. pylori” value (strain EH 13, RXM 12.5 μg/ml) was “−” and the “growth of H. pylori” value (strain EH 13, RXM 25 μg/ml) was “−”. For the same compound, the “growth of H. pylori” value (strain EH 13, RXM 50 μg/ml) was “−”, the “growth of H. pylori” value (strain EH 13, RXM 100 μg/ml) was “−” and the “growth of H. pylori” value (strain NCTC11637, RXM 0.05 μg/ml) was “+”. For the same compound, the “growth of H. pylori” value (strain NCTC11637, RXM 0.1 μg/ml) was “+”, the “growth of H. pylori” value (strain NCTC11637, RXM 0.2 μg/ml) was “−” and the “growth of H. pylori” value (strain NCTC11637, RXM 0.4 μg/ml) was “−”. The “growth of H. pylori” value (strain NCTC11637, RXM 0.8 μg/ml) was “−”, the “growth of H. pylori” value (strain NCTC11637, RXM 1.56 μg/ml) was “−” and the “growth of H. pylori” value (strain NCTC11637, RXM 3.13 μg/ml) was “−”. The “growth of H. pylori” value (strain NCTC11637, RXM 6.25 μg/ml) was “−”, the “growth of H. pylori” value (strain NCTC11637, RXM 12.5 μg/ml) was “−” and the “growth of H. pylori” value (strain NCTC11637, RXM 25 μg/ml) was “−”. For the same compound, the “growth of H. pylori” value (strain NCTC11637, RXM 50 μg/ml) was “−”, the “growth of H. pylori” value (strain NCTC11637, RXM 100 μg/ml) was “−” and the “growth of H. pylori” value (strain NCTC11639, RXM 0.05 μg/ml) was “+”. For the same compound, the “growth of H. pylori” value (strain NCTC11639, RXM 0.1 μg/ml) was “+”, the “growth of H. pylori” value (strain NCTC11639, RXM 0.2 μg/ml) was “+” and the “growth of H. pylori” value (strain NCTC11639, RXM 0.4 μg/ml) was “+”. For the same compound, the “growth of H. pylori” value (strain NCTC11639, RXM 0.8 μg/ml) was “−”, the “growth of H. pylori” value (strain NCTC11639, RXM 1.56 μg/ml) was “−” and the “growth of H. pylori” value (strain NCTC11639, RXM 3.13 μg/ml) was “−”. The “growth of H. pylori” value (strain NCTC11639, RXM 6.25 μg/ml) was “−”, the “growth of H. pylori” value (strain NCTC11639, RXM 12.5 μg/ml) was “−” and the “growth of H. pylori” value (strain NCTC11639, RXM 25 μg/ml) was “−”. For the same compound, the “growth of H. pylori” value (strain NCTC11639, RXM 50 μg/ml) was “−” and the “growth of H. pylori” value (strain NCTC11639, RXM 100 μg/ml) was “−”.
